Like-named read-outs stand apart in the source and are kept apart here.

One data set concerns 4T1 TNBC. Nature of the data set: 4T1 TNBC orthotopic tumor model (tumor volume, survival). In kind it is in vivo, mice (BALB/c). Here is the method: Tumor Model. Animal protocols were approved by the University of Colorado Health Sciences Center Animal Care and Use Committee. Female BALB/c mice, 6-8 weeks old (The Jackson Laboratory), were fed standard or dapansutrile (OLT1177®) diet (4), which was started on the day of 4T1 injection. 4T1 cells (2×10^5) were injected orthotopically into the mammary fat pad. Mice treated with dapansutrile were fed ad libidum with food pellets containing 7.5 g/kg dapansutrile, which started on the day of the 4T1 injection and continued for 15 days. Mice typically consume about 4 g of food per day, resulting in an approximate daily dose of 0 mg/kg/day for control groups and 1,000 mg/kg/day for the treatment groups. […] Control (“vehicle”) mice were fed with control food pellets without dapansutrile. Mice were sacrificed following 15 days after 4T1 injection.
Anti-PD-1 Combination Therapy. 4T1 cells were injected as described. After instillation of 4T1 cells, mice were started on dapansutrile (OLT1177®) diet or continued on standard diet as described and at day seven a neutralizing antibody against PD-1 (200 μg/mouse; BioXCell, West Lebanon, NH) was injected peritoneally. Mice were sacrificed following 15 days from the […] instillation.
Anti-IL-1α Combination Therapy. 4T1 cells were injected as described. After instillation of 4T1 cells, mice were started on dapansutrile (OLT1177®) diet or continued on standard diet as described and every three days a neutralizing antibody against anti-IL-1α (200 μg/mouse; XBioTech, Austin, TX) was injected peritoneally. Mice were sacrificed following 15 days from the […] instillation.
4T1 TNBC mice were generated and fed a standard diet or a dapansutrile diet for 15 days. Tumors were measured on indicated days to generate a growth curve (FIG. 1C). Final tumor volume was taken following resection of the tumors (FIG. 1B).
To further assess the roles of IL-1α and IL-1β in driving 4T1 tumor progression, inventors treated mice with anti-IL-1α (200 μg/mouse), dapansutrile diet, and a combination of both. 4T1 TNBC mice were generated and fed a standard diet or a dapansutrile diet for 15 days. Mice were injected with anti-IL1α every 3 days as indicated. Subsequently, tumor volume was analyzed.
4T1 TNBC mice were generated and fed a standard diet or a dapansutrile diet for 15 days. Mice receiving a combination therapy were injected with anti-PD-1 on day 7 as indicated (FIG. 3A).

Data set [1] relates to TSLP. The data set is described as follows: Gene expression (qPCR) in primary 4T1 tumors: TSLP. Format: in vivo, mice. The conditions noted are these: dapansutrile diet vs vehicle (FIG. 2D). Here is the method: (§1) Gene Expression. RNA was then isolated using Trizol (Thermo Fisher Scientific) and synthesized in cDNA using SuperScript III First-Strand (Thermo Fisher Scientific). Quantitative PCR (qPCR) was performed on cDNA using Power SYBR Green PCR master mix (Thermo Fisher Scientific) on Biorad CFX96 Real time system. Gene expression was assessed for Tslp, Tslpr, and Pdcd-11L1 mRNAs as indicated using the following primers: […]
(§2) Tumor Model. Animal protocols were approved by the University of Colorado Health Sciences Center Animal Care and Use Committee. Female BALB/c mice, 6-8 weeks old (The Jackson Laboratory), were fed standard or dapansutrile (OLT1177®) diet (4), which was started on the day of 4T1 injection. 4T1 cells (2×10^5) were injected orthotopically into the mammary fat pad. […]
(§3) Previous studies on the tumor-myeloid cell interactions in triple-negative breast cancer indicate that tumor-derived IL-1α promotes infiltrating myeloid cells to secrete TSLP (thymic stromal lymphopoietin), which in turn is critical for tumor progression at both primary and distant metastatic sites (15). To further evaluate the effects of blocking NLRP3 in 4T1 tumor progression, inventors quantified gene expression of TSLP and its associated receptor TSLPR in primary 4T1 tumors as measured by relative mRNA expression. […]

Data set [2] relates to TSLPR. Nature of the data set: Gene expression (qPCR) in primary 4T1 tumors: TSLPR. Format: in vivo, mice. The conditions noted are these: dapansutrile diet vs vehicle (FIG. 2E). Here is the method:
as §1, §2, §3

The subject of data set [3] is TSLP. Nature of the data set: TSLP mRNA expression in IL-1α-stimulated MDA-468 cells. Particulars: IL-1α 20 ng/mL, dapansutrile 10 μM, 24 hours, vs control (FIG. 2F). Format: cell-based, human. Here is the method: (§4) Cell Lines. The mammary carcinoma cell lines 4T1, E0771, and MDA-468 were obtained from ATCC (Manassas, VA). Cells were cultured in DMEM supplemented with 10% FBS, 100 units/mL penicillin, 0.1 mg/ml streptomycin. Cells were maintained in a humidified 5% CO2 atmosphere at 37° C.
(§5) In vitro. Tumor cell lines were adhered overnight at a concentration of 200,000 per well. The following day human recombinant IL-1α or IL-1β (R&D Systems, Minneapolis, MN) were added with or without dapansutrile (OLT1177®) and incubated for 24 hours. Cells were then lysed using TRIzol reagent (Thermo Fisher Scientific, Waltham, MA).
(§6) Gene Expression. […] Quantitative PCR (qPCR) was performed on cDNA using Power SYBR Green PCR master mix (Thermo Fisher Scientific) on Biorad CFX96 Real time system. Gene expression was assessed for Tslp, Tslpr, and Pdcd-11L1 mRNAs as indicated using the following primers: […]
as §3

The test system of data set [4] is TSLPR. Nature of the data set: TSLPR mRNA expression in IL-1α-stimulated MDA-468 cells. Particulars: IL-1α 20 ng/mL, dapansutrile 10 μM, 24 hours, vs control (FIG. 2G). Format: cell-based, human. Here is the method:
as §4, §5, §6, §3

In data set [5] the test system is PD-L1. Nature of the data set: Gene expression (qPCR) in 4T1 tumors: PD-L1. The conditions noted are these: dapansutrile diet vs standard diet (FIG. 3D). Format: in vivo, mice. Here is the method:
as §1
Tumor Model. Animal protocols were approved by the University of Colorado Health Sciences Center Animal Care and Use Committee. Female BALB/c mice, 6-8 weeks old (The Jackson Laboratory), were fed standard or dapansutrile (OLT1177®) diet (4), which was started on the day of 4T1 injection. 4T1 cells (2×10^5) were injected orthotopically into the mammary fat pad. Mice treated with dapansutrile were fed ad libidum with food pellets containing 7.5 g/kg dapansutrile, which started on the day of the 4T1 injection and continued for 15 days. Mice typically consume about 4 g of food per day, resulting in an approximate daily dose of 0 mg/kg/day for control groups and 1,000 mg/kg/day for the treatment groups. […] Control (“vehicle”) mice were fed with control food pellets without dapansutrile. Mice were sacrificed following 15 days after 4T1 injection. […]
For orientation: Real-time PCR tracks product formation cycle by cycle.

Data set [6] relates to PD-L1. The data set is described as follows: PD-L1 mRNA expression in IL-1α-stimulated E0771 cells. Format: cell-based, murine. Particulars: IL-1α 10 ng/mL, dapansutrile vs vehicle (FIG. 3E). Here is the method:
as §4, §5, §1
In vitro analysis of the murine triple-negative breast cancer cell line E0771 was conducted to examine the effects of dapansutrile on PD-L1 expression levels following cell death signaling. IL-1α stimulation was used to simulate cell death signaling in the tumor-microenvironment. […]

Another data set deals with IL-22. Nature of the data set: Splenocyte cytokine secretion (ELISA): IL-22. In kind it is in vivo. The conditions noted are these: splenocytes of 4T1 tumor-bearing mice, LPS 10 μg/mL, 72 hours, vs vehicle (FIG. 4B). Here is the method: (§7) Splenocyte Cytokine Secretion. 4T1 cells were injected as described. Spleens from tumor-bearing mice were processed for cell culture through mechanical dissociation. Cells suspended in RPMI supplemented with 10% FBS, 100 units/mL penicillin, 0.1 mg/ml streptomycin and were plated at 5.0e^5 and stimulated with 10 μg/mL LPS. After 72 hours, supernatants were removed and cytokines were measured via ELISA (R&D Systems, Minneapolis, MN).
(§8) In this Example, 4T1 TNBC mice were generated and fed a standard diet or a dapansutrile diet for 15 days.
A general note: An ELISA detects its analyte on a solid surface through an enzyme-linked reagent.

A further data set has as its system IFNγ. Nature of the data set: Splenocyte cytokine secretion (ELISA): IFNγ. Format: in vivo. Particulars: splenocytes of 4T1 tumor-bearing mice, LPS 10 μg/mL, 72 hours, vs vehicle (FIG. 4C). Here is the method: as §7, §8
For data set [7] the following is noted: humans treated orally at 1000 mg/day; cited from earlier work.
The conditions of data set [8]: mice, 7.5 g/kg dapansutrile in food (about 1,000 mg/kg/day); nearly the same as human level; cited from earlier work.
For data set [9] the following is noted: orally administered to healthy subjects; cited from earlier work.
In a further data set the target is NLRP3 inflammasome (Homo sapiens, UniProt Q96P20). Particulars: cited from earlier work.
Chain of NLRP3 inflammasome (Q96P20 whole entry): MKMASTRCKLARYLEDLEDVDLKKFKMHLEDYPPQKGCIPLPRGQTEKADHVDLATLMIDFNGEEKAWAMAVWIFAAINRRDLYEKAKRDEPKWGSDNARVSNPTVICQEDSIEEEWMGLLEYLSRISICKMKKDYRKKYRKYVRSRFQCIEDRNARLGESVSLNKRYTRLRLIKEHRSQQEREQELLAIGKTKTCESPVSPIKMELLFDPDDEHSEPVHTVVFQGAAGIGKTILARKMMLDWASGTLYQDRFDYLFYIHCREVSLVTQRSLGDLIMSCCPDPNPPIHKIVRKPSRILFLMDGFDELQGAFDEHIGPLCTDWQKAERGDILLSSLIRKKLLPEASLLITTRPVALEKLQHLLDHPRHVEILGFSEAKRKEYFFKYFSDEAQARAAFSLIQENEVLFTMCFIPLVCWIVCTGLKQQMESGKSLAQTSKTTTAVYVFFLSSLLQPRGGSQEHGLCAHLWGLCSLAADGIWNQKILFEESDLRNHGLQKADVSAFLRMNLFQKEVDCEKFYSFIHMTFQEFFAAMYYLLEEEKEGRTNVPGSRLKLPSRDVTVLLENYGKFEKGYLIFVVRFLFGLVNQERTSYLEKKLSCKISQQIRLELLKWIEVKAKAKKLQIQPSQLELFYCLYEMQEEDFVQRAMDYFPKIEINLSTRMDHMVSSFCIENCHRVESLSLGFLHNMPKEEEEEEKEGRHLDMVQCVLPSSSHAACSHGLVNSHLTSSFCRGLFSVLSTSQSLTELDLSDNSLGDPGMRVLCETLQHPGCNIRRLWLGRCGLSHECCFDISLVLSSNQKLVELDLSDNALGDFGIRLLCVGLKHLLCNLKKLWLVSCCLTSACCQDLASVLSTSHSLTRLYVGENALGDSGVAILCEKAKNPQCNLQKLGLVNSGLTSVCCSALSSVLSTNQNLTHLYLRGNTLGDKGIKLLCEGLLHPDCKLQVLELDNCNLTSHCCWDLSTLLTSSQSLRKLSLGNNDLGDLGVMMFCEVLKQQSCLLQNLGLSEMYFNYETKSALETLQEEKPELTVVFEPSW

Consider `CS(=O)(=O)CCC#N` [dapansutrile, 3-methanesulfonyl-propionitrile], for which the “mice surviving beyond 30 days” value in the data set on 4T1 TNBC (Example 1, 4T1 TNBC mice on dapansutrile diet) was “half”. For the same molecule, the tumor volume entry is recorded as “significantly decreased tumor volume” in the data set on 4T1 TNBC (Example 1, 4T1 TNBC mice, dapansutrile diet 15 days vs standard diet, after resection (FIG. 1B)) and “significant tumor reduction” with 4T1 TNBC (Example 3, 4T1 TNBC mice, day 15 after resection, dapansutrile diet and/or anti-PD-1 200 μg/mouse on day 7, vs vehicle (FIG. 3B)). Further, the survival rates result with 4T1 TNBC (Example 1, 4T1 TNBC mice, dapansutrile diet vs standard diet (FIG. 1D, n=10)) is on record as “significantly higher survival rates”. The tumor volumes entry in the data set with 4T1 TNBC (Example 2, 4T1 TNBC mice, 15 days, dapansutrile diet and/or anti-IL-1α 200 μg/mouse every 3 days, vs vehicle (FIGS. 2B, 2C)) is given as “significantly reduced tumor volumes”. Further, the “TSLP expression (relative mRNA)” value in the data set on TSLP [1] and with TSLP [3] was “significantly lower” in each case. In addition, the “TSLPR expression (relative mRNA)” value with TSLPR [2] and with TSLPR [4] was “significantly lower” throughout. For the same molecule, the “PD-L1 gene expression (relative mRNA)” value in the data set on PD-L1 [5] was “significantly less”. The “PD-L1 expression (relative mRNA)” value in the data set on PD-L1 [6] is listed as “markedly lower”. Besides, in the data set with IL-22, the IL-22 levels result is reported as “significantly reduced IL-22 levels”. Moreover, the IFNγ levels result in the data set on IFNγ is reported as “increased”. The blood level is 40000 ng/mL in [7] and around 40000 ng/mL in data set [8]. Also, the safety entry in [9] is reported as “safe”. At NLRP3 inflammasome, the NLRP3 inflammasome inhibition result is on record as “selectively inhibit”.

(Values after patent publication US12582628B2, “Methods for treating breast cancer” (Olatec Therapeutics, Inc., priority 2019, dated 2026).)
